{
  "source": "patent US20160339008A1",
  "about": "“METHODS OF TREATING OR PREVENTING VASCULAR DISEASES OF THE RETINA” (Children's Medical Center Corporation, priority 2013, published 2016)",
  "key": {"[1]": {"system": "aortic rings (macrovascular sprouting)", "experiment": "Aortic ring sprouting assay (ex vivo aortic ring explants)", "format": "cell-based, mouse", "description": "Tie2-CYP2C8Tg, Tie2-sEHTg, sEH−/− mice and littermate wild-type mice were anesthetized and perfused intracardiacly with warm PBS. Aortae were dissected free, cut into 1-mm-thick rings and embedded in 304, of growth factor-reduced Matrigel™ (BD Biosciences, Cat. 354230) in 24-well tissue culture plates. 5004, CSC complete medium (Cell Systems, Cat. 420-500) activated with growth factor Boost, was then added to each well and incubated at 37° C. with 5% CO2 for 48 hours before any treatment. Medium contained 5 units/mL of Penicillin/Streptomycin (GIBCO, Cat. 15142) to prevent contamination.\nDHA (Cayman Chemical, Cat. 90310, 30 μM) and AA (Cayman Chemical, Cat. 90010, 30 μM) were introduced to the culture medium 48 hours after seeding of aortic ring from Tie2-CYP2C8Tg and littermate wild-type control. 17(18)-EpETE (EEQ) (Cayman Chemical, Cat. 50861, 1 μM), 19(20)-EpDPE (EDP) (Cayman Chemical, Cat. 10175, 1 μM) and 14,15-EE-8(Z)-E (EET) (Cayman Chemical, Cat. 10010486, 1 μM) were administered to the culture medium 48 hours after seeding of aortic ring from Tie2-sEHTg, sEH−/− and their wild-type littermate controls. Medium was changed every 48 hours for all groups. Phase contrast photos of individual explants were taken 168 hours after plating (120 hours after treatment) using a ZEISS Axio Oberver.Z1 microscope. The areas of macrovascular sprouting were quantified with computer software ImageJ 1.46r (National Institute of Health). A semi-automated macro plugin for quantification of vessel sprouts is available from the authors."}, "[2]": {"system": "human retinal microvascular endothelial cells (HRMEC)", "experiment": "HRMEC tubule formation", "format": "cell-based"}, "[3]": {"system": "human retinal microvascular endothelial cells (HRMEC)", "experiment": "HRMEC migration", "format": "cell-based", "conditions": "for rescue of the inhibition of HRMEC migration by FA: with FA"}, "[4]": {"system": "neovascularization (NV) in oxygen-induced retinopathy", "experiment": "Oxygen-induced retinopathy (OIR) mouse model, quantification of retinal neovascularization", "format": "in vivo", "conditions": "for magnitude of the extent of reduction in NV, Cyp2C8 Tg mice compared to WT mice: 10 mg/kg/day GV, mice fed ω3 (n3) or ω6 (n6)", "description": "Mouse model of OIR is described^13. C57BL/6J mice were analyzed by immunohistochemistry, real-time PCR, western blot, blood smear and LC/MS/MS oxylipid analysis. Mothers of Cyp and sEH mutant mice were fed ω3PUFA or ω6PUFA-enriched diets in OIR followed by analysis of retina, plasma and aortic ring sprouting.\nThe mouse model of oxygen-induced retinopathy has been previously described (Smith et al. Invest Ophthalmol Vis Sci 35: 101-111). To induce vessel loss, mice were exposed to 75% oxygen from postnatal day 7 (P7) to P12. The central retinal vessel obliteration induced by hyperoxic exposure will trigger an excessive angiogenic response that causes neovascularization. Mice were given lethal doses of Avertin (Sigma) intraperitoneally at P17 when the neovascular response is greatest.\nFor dietary experiments, polyunsaturated fatty acids (PUFAs), arachidonic acid (AA) and docosahexaenoic acid (DHA) supplements under the trade names ROPUFA, ARASCO and DHASCO, respectively, were obtained from DSM Nutritional Products (dsmnutritionalproducts.com) and were integrated into the rodent feed at Research Diets Incorporated (researchdiets.com/). […] Upon delivery, dams were fed a defined rodent diet with 10% (w/w) safflower oil containing either 2% ω-6 PUFAs (AA) and no ω-3 PUFAs (DHA and EPA), or 2% ω-3 PUFAs and no ω-6 PUFAs.\nOIR eyes were enucleated and fixed in 4% paraformaldehyde for 1 hour at 4° C. Retinas were dissected and stained overnight at 23° C. with Alexa Fluor 594 fluoresceinated Griffonia Bandereiraea Simplicifolia Isolectin B4 (Molecular Probes, Cat. 121413, 1:100 dilution) in 1 mM CaCl2 in PBS. Following 2 hours of washes, retinas were whole-mounted onto Superfrost/Plus microscope slides (Fisher, Cat. 12-550-15) with the photoreceptor side up and embedded in SlowFade Antifade reagent (Invitrogen, Cat. S2828). For quantification of retinal neovascularization, 20 images of each whole-mounted retina were obtained at 5× magnifications on a Zeiss AxioObserver.Z1 microscope and merged to form one image with AxioVision 4.6.3.0 software. Vaso-obliteration was quantified using Adobe Photoshop and neovascularization was analysed with the SWIFT_NV method on ImageJ 1.46r (NIH) software, as described previously (Stahl et al. Angiogenesis 12: 297-301)."}},
  "data": [
    {"smiles": "CCCCCC1OC1C/C=C\\C/C=C\\C/C=C\\CCCC(=O)O", "note": "(stereo not shown) [14,15-EET, 14,15-EE-8(Z)-E]", "values": [
      {"measurement": "aortic ring sprouting compared between WT, Tie2-sEH-Tg and sEH−/− mice", "setting": "[1]; 1 μM", "value": "similar"}
    ]},
    {"smiles": "CCC1OC1C/C=C\\C/C=C\\C/C=C\\C/C=C\\C/C=C\\CCC(=O)O", "note": "(stereo not shown) [19,20-EDP, 19(20)-EpDPE]", "values": [
      {"measurement": "less sprouting, treated Tie2-sEH-Tg aortic ring versus WT", "setting": "[1]; 1 μM", "value": 50, "unit": "%"},
      {"measurement": "rescue of FA inhibition of aortic ring sprouting", "setting": "[1]; rings from WT & Cyp2C8 Tg mice, with FA", "value": "partially rescued"},
      {"measurement": "rescue of the inhibition of HRMEC tubule formation by FA", "setting": "[2]; with FA", "value": "partially rescued"},
      {"measurement": "rescue of the inhibition of HRMEC migration by FA", "setting": "[3]", "value": "partially rescuing"}
    ]},
    {"smiles": "CC/C=C\\C/C=C\\C/C=C\\C/C=C\\C/C=C\\C/C=C\\CCC(=O)O", "note": "[DHA, docosahexaenoic acid]", "values": [
      {"measurement": "aortic sprouting, Tie2-CYP2C8-Tg versus WT", "setting": "[1]; DHA treatment 30 μM", "value": "increased sprouting"}
    ]},
    {"smiles": "CC(C)OC(=O)C(C)(C)Oc1ccc(C(=O)c2ccc(Cl)cc2)cc1", "note": "[fenofibrate]", "values": [
      {"measurement": "magnitude of the extent of reduction in NV, Cyp2C8 Tg mice compared to WT mice", "setting": "[4]", "value": "enhanced in mice that overexpressed CYP2C8"},
      {"measurement": "neovascularization", "setting": "[4]; Cyp2C8 overexpressing transgenic (Tg) mice, ω3 and ω6 LCPUFA feed, low dose", "value": "decreased neovascularization"},
      {"measurement": "neovascularization (NV)", "setting": "[4]; JAX (WT) mice, normal feed, high dose 100 mg/kg/day GV", "value": "significant reduction in neovascularization"},
      {"measurement": "neovascularization (NV)", "setting": "[4]; JAX (WT) mice, normal feed, low dose 10 mg/kg/day GV", "value": "significant reduction in neovascularization"},
      {"measurement": "neovascularization (NV)", "setting": "[4]; PPARα knockout mice, normal feed, high dose 100 mg/kg/day GV", "value": "significant reduction in neovascularization"},
      {"measurement": "neovascularization (NV)", "setting": "[4]; PPARα knockout mice, normal feed, low dose 10 mg/kg/day GV", "value": "significant reduction in neovascularization"},
      {"measurement": "neovascularization", "setting": "[4]; WT mice, ω3 and ω6 LCPUFA feed, low dose", "value": "decreased neovascularization"},
      {"measurement": "HRMEC tubule formation", "setting": "[2]", "value": "inhibit HRMEC tubule formation"}
    ]},
    {"smiles": "CCC1OC1C/C=C\\C/C=C\\C/C=C\\C/C=C\\CCCC(=O)O", "note": "(stereo not shown) [17,18-EEQ, 17(18)-EpETE]", "values": [
      {"measurement": "aortic ring sprouting compared between WT, Tie2-sEH-Tg and sEH−/− mice", "setting": "[1]; 1 μM", "value": "no difference"},
      {"measurement": "rescue of the inhibition of HRMEC migration by FA", "setting": "[3]", "value": "partially rescuing"}
    ]},
    {"smiles": "CCC(=O)NC[C@H](Cc1ccc(OCCc2nc(-c3ccccc3)oc2C)cc1)N/C(C)=C\\C(=O)c1ccc(C(F)(F)F)cc1", "note": "[GW6471]", "values": [
      {"measurement": "impact upon the effect of FA on aortic ring sprouting", "setting": "[1]; rings from WT and Cyp2C8 Tg mice, with FA", "value": "no impact"},
      {"measurement": "impact upon the effect of fenofibrate on HRMEC tubule formation", "setting": "[2]; with fenofibrate", "value": "no impact"},
      {"measurement": "impact upon the effect of fenofibrate on HRMEC migration", "setting": "[3]; with FA/fenofibrate", "value": "no impact"}
    ]},
    {"smiles": "CC(C)(O)c1ccccc1CC[C@@H](SCC1(CC(=O)O)CC1)c1cccc(/C=C/c2ccc3ccc(Cl)cc3n2)c1", "note": "[montelukast]", "values": [
      {"measurement": "magnitude of the extent of reduction in NV, Cyp2C8 Tg mice compared to WT mice", "setting": "[4]", "value": "enhanced in mice that overexpressed CYP2C8"},
      {"measurement": "neovascularization", "setting": "[4]; JAX (WT) mice, normal feed, dose not given", "value": "reduced in a statistically significant manner"},
      {"measurement": "HRMEC tubule formation", "setting": "[2]", "value": "clear dose-response curves"},
      {"measurement": "HRMEC migration", "setting": "[3]", "value": "inhibited"}
    ]},
    {"smiles": "CCCCC/C=C\\C/C=C\\C/C=C\\C/C=C\\CCCC(=O)O", "note": "[AA, arachidonic acid]", "values": [
      {"measurement": "potentiation of aortic sprouting, AA vs. DHA", "setting": "[1]; 30 μM, Tie2-CYP2C8-Tg rings", "value": "abolished"},
      {"measurement": "aortic sprouting, AA vs. DHA", "setting": "[1]; 30 μM, WT rings", "value": "potentiated aortic sprouting"}
    ]}
  ]
}
